Source: US20090105260A1, “Molecules to Enhance Percutaneous Delivery and Methods for Discovery Therefor” (priority 2005, published 2009)

Tested on: porcine skin (ER); EpiDerm™ normal human derived epidermal keratinocytes (IP)
Assay: ER/IP: skin conductivity enhancement ratio (INSIGHT apparatus) divided by irritation potential (EpiDerm MTT viability)
Set-up: species or system Yorkshire pigs; human
Conditions: EpiDerm and INSIGHT apparatus, procedures of Examples 1 and 2; FIG. 32 left-hand panel
Method: Formulations containing 1.5% (wt/vol) of each CPE were prepared in a 1:1 EtOH:PBS (ethanol:phosphate buffered saline) solvent.
Irritation potential of formulations was estimated using EpiDerm™ (MatTek Corporation, Ashland, Mass. www.mattek.com), a cell culture of normal human derived epidermal keratinocytes. EpiDerm™ cultures were stored and handled according to the standard protocol MTT-ET-50 supplied by MatTek Corporation. To study the effect of the test formulations on cell viability, cell cultures were exposed to 10 μl of the test formulation consisting of 1.5% (wt/vol) of each CPE in a 1:1 EtOH:PBS solvent for 4 hours. Each test formulation was analyzed in duplicate. The cell cultures were then handled as per the MTT-ET-50 protocol. The optical absorbance data from the extracted samples was then used to calculate the percentage cell viability as recommended in the protocol. Based on the cell viability, the irritation potential, IP, was defined as follows:
1% (wt/vol) Triton X-100 dissolved in water was used as the positive control and 1:1 PBS:EtOH was used as negative control. […]
Enhancement ratios were measured using an apparatus (the INSIGHT apparatus) which consisted of a polycarbonate plate that served as the receptor plate and a Teflon® plate that served as the donor plate. […]
Skin impedance in each well was recorded using two electrodes. […]

Question: C=C(C)C(=O)OCCCCCCCCCCCCCCCCCC [SM, stearyl methacrylate] was tested. Which “FP/IPDescriptor (ER/IP determined experimentally) relative to oleic acid” value did it give?
Answer: about 3 times
